Patent publication US20200385789A1, “METHODS OF ASSESSING TELOMERES” (Children's Medical Research Institute, priority 2017, published 2020)

System: IMR90 primary human foetal lung fibroblasts
Test: Telomere length by telomere fibre-FISH (TFF) after exposure of cells to inhibitors
Type: cell-based
Details: 0.1 μM aphidicolin and/or 0.2 μM INK128, harvested 7 days after exposure, versus DMSO alone (untreated)
Procedure: IMR90 primary human foetal lung fibroblasts were plated and 1 day later were exposed to aphidicolin, mTORi, aphidicolin+mTORi, or DMSO alone (untreated). Cells were harvested a further 7 days later and telomere length was assessed by TFF. (A) Representative imaging data of DNA fibres: Left panel—expanded view of telomere fibre fish imaging data. Center and right panels—close up of the boxes 1-5 shown on the left panel. Boxes are drawn around the telomere signals and the length in μm and kb is indicated. (B). Telomere length presented in a Tukey box plot. “+” is the mean, **=P<0.01. TFF was used to measure telomere length in cells exposed to one or both of two inhibitors: aphidicolin and an mTOR inhibitor. Cells (IMR90 primary human foetal lung fibroblasts) were plated and one day later were exposed to 0.1 μM aphidicolin, 0.2 μM of INK128 (an mTOR inhibitor), aphidicolin+INK128, or DMSO alone (untreated). Cells were harvested a further 7 days later and telomere length was assessed by TFF, essentially as described above.

| SMILES | Telomere length compared with untreated cells |
| --- | --- |
| CC(C)n1nc(-c2ccc3oc(N)nc3c2)c2c(N)ncnc21 [INK128] | telomere length in untreated cells was significantly greater |
| C[C@@]1(CO)[C@H](O)CC[C@@]2(C)[C@H]1CC[C@H]1C[C@@H]3C[C@@]12CC[C@]3(O)CO [aphidicolin] | telomere length in untreated cells was significantly greater |
